The results in this text go back to patent US11993594B2, “IRAK inhibitors and method for making and using” (Rigel Pharmaceuticals, Inc., priority 2016, dated 2024).

For test [1], the system named is LPS induced IL-23 (p19/p40) in DC cells. As to the kind of experiment: IL23-p19 ELISA, dendritic (DC) cells differentiated from human PBMC, LPS stimulated. Type of test: cell-based. The note with it: LPS 1 μg/ml, 18 hours, 10 pt. The method in brief: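 Human PBMC-derived dendritic cells (7 days GM-CSF 100 ng/ml plus IL-4 20 ng/ml, then primed 24 h with IFNγ 50 ng/ml) pre-incubated 1 h with compound, then stimulated 18 h at 37 °C with LPS 1 μg/ml. Supernatant IL-23 measured by sandwich chemiluminescent ELISA (anti-p19 capture, anti-p40 detection); cytotoxicity by CellTiter-Glo.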
In general terms: An ELISA detects its analyte on a solid surface through an enzyme-linked reagent.

In test [2] the test system is LPS Induced IL23p19 in THP-1 Cells. As to the kind of experiment: LPS Induced IL23p19 in THP-1 Cells (with IFNγ Primed) Assay. In kind it is cell-based, human. The note with it: THP-1 cells primed with IFNγ 50 ng/mL, LPS 1 ug/mL, 18 hours, 10 pt, read-out: IL23-p19 ELISA, THP1-IFNγ, LPS, 10 pt EC50. The method in brief: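 THP-1 cells (50K/well) are primed with IFNγ at 50 ng/mL for about 18 h. They are then pre-treated with compound for 1 h and stimulated with LPS at 1 ug/mL final for 18 h at 37 °C. Secreted IL-23p19 is measured by chemiluminescent sandwich ELISA and EC50 is derived by curve fitting, with Cell Titer Glo as a viability counter-screen.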

Where a name gives a salt, the structure may show the parent alone. Read-outs that look alike come from different tables or passages of the source.

The term EC50 denotes the concentration that produces a half-maximal response. Take `O=C(Nc1cn([C@H]2C[C@H](N3CCOCC3)C2)nc1-c1cnccn1)c1coc(-c2cn[nH]c2)n1` [Compound I-33, N-(1-((1r,3r)-3-morpholinocyclobutyl)-3-(pyrazin-2-yl)-1H-pyrazol-4-yl)-2-(1H-pyrazol-4-yl)oxazole-4-carboxamide]: the EC50 in test [1] (Table 1, IFNγ 50 ng/ml) amounted to 23.4 nM; in test [2] (Homo sapiens, Table 1) it was 59.1 nM.
For `O=C(Nc1cn([C@H]2C[C@@H](N3CCOCC3)C2)nc1-c1cnccn1)c1coc(-c2cn[nH]c2)n1` [Compound I-34, N-(1-((1s,3s)-3-morpholinocyclobutyl)-3-(pyrazin-2-yl)-1H-pyrazol-4-yl)-2-(1H-pyrazol-4-yl)oxazole-4-carboxamide], the EC50 in test [1] (Table 1, IFNγ 50 ng/ml) is 18.8 nM; in test [2] (Homo sapiens, Table 1), 7.8 nM.
For `O=C(Nc1cn(C2CCC(N3CCOCC3)CC2)nc1-c1cnccn1)c1coc(-c2c[nH]nc2F)n1` (stereo not shown) [Compound I-35, 2-(3-fluoro-1H-pyrazol-4-yl)-N-(1-((1r,4r)-4-morpholinocyclohexyl)-3-(pyrazin-2-yl)-1H-pyrazol-4-yl)oxazole-4-carboxamide formic acid salt] the same measures were 46.5 nM and 78 nM.
Consider `O=C(Nc1cn([C@H]2C[C@@H](O)C2)nc1-c1cnccn1)c1coc(-c2cn[nH]c2)n1` [Compound I-38, N-(1-((1s,3s)-3-hydroxycyclobutyl)-3-(pyrazin-2-yl)-1H-pyrazol-4-yl)-2-(1H-pyrazol-4-yl)oxazole-4-carboxamide], for which the EC50 is 39.9 nM in test [1] (Table 1, IFNγ 50 ng/ml) and 2.6 nM in test [2] (Homo sapiens, Table 1).
“N-(1-(2-(2-methoxyethoxy)ethyl)-3-(pyridin-2-yl)-1H-pyrazol-4-yl)-2-(1H-pyrazol-4-yl)oxazole-4-carboxamide [Compound I-24]”: the EC50 in test [1] (Table 3, IFNγ 50 ng/ml) came out at 217 nM; in test [2] (Table 3), 238 nM.
